Source: patent US8980850B2, “Administration of a NEDD8-activating enzyme inhibitor and hypomethylating agent” (Millennium Pharmaceuticals, Inc., priority 2011, dated 2015)

Columns and labels:
[1] = test system: HL-60 disseminated xenograft; test: HL-60 disseminated xenograft model, survival; type: in vivo, female mice CB-17 SCID; conditions: MLN4924 180 mg/kg and/or azacitidine 10 mg/kg s.c. on days 22, 25, 29, 32, 36, 39; for Mean survival time: Vehicle 48.1
Method: Test subjects. […] On day 20 post-inoculation, mice were randomized into groups of 10. Starting on day 22, mice were dosed subcutaneously with vehicle, 180 mg/kg MLN4924, 10 mg/kg azacitidine, or the combination of 180 mg/kg MLN4924 and 10 mg/kg azacitidine, using the same twice-weekly schedule as described in the subcutaneous xenograft experiments (dosing on days 22, 25, 29, 32, 36, 39). The mice were monitored at least twice weekly for body weight loss and signs of disease, including paresis or paralysis of hind limbs and emergence of palpable and internal solid tumors. The day on which an animal died or was sacrificed due to disease burden was recorded.
To determine synergy in the survival times, the mean survival times and corresponding standard errors were computed for each treatment group.

[2] = test system: HL60 subcutaneous xenograft tumors; test: HL-60 subcutaneous xenograft model, tumor growth and synergy; conditions: s.c. Days 1, 4, 8, 11, 15 and 18; FIG. 2
[3] = test system: THP-1 subcutaneous xenograft tumors; test: THP-1 subcutaneous xenograft model, tumor growth and synergy; conditions: s.c. Days 1, 4, 8, 11, 15 and 18; FIG. 3
[4] = test system: OCI-M2 subcutaneous xenograft tumors; test: OCI-M2 subcutaneous xenograft model, tumor growth and synergy; conditions: s.c. Days 1, 4, 8, 11, 15 and 18; FIG. 4
[5] = test system: THP-1
Source text: Normalization. […] After normalization, the controls were discarded.

NS(=O)(=O)OC[C@@H]1C[C@@H](n2ccc3c(N[C@H]4CCc5ccccc54)ncnc32)C[C@@H]1O [MLN4924, ((1S,2S,4R)-4-(4-((1S)-2,3-dihydro-1H-inden-1-ylamino)-7H-pyrrolo[2,3-d]-pyrimidin-7-yl)-2-hydroxycyclopentyl)methyl sulfamate]
extension of mean survival time compared to the control group [1]: 8.4 days
Mean survival time [1]: 56.5 days
effect on tumor growth [2]: marginal effect on tumor growth
effect on tumor growth [3]: inhibited tumor growth
effect on tumor growth [4]: inhibited tumor growth

Nc1ncn([C@@H]2O[C@H](CO)[C@@H](O)[C@H]2O)c(=O)n1 [azacitidine, 4-amino-1-β-D-ribofuranosyl-s-triazin-2(1H)-one]
extension of mean survival time compared to the control group [1]: 21.1 days
Mean survival time [1]: 69.2 days
effect on tumor growth [2]: marginal effect on tumor growth
effect on tumor growth [3]: marginal effect on tumor growth
effect on tumor growth [4]: inhibited tumor growth

Nc1ncn([C@H]2C[C@H](O)[C@@H](CO)O2)c(=O)n1 [decitabine, 4-amino-1-(2-deoxy-β-D-erythropentofuranosyl)-1,3,5-triazin-2(1H)-one]
single agent activity [5]: lack of single agent activity
